Here are results for four compounds from DBAASP.

Converted amounts (≈) assume the structure as drawn. Where only a bound is given, the exact number is not on record here.

Some test systems named below: Lactococcus garvieae; Streptococcus iniae; Vibrio alginolyticus; Vibrio harveyi; Vibrio parahaemolyticus; Candida albicans; Candida tropicalis.
Common to all, as to test: ≥ marks a high value that may be exact or a test limit, other limits are often not marked, values filed in µg/mL are converted to µM
Assay [1] has as its system Enterobacter cloacae BCRC 10401.
The test system of assay [2] is Escherichia coli BCRC 10675.
Assay [3] concerns Klebsiella aerogenes BCRC 10370.
For assay [4], the system named is Klebsiella oxytoca BCRC 13985.
Assay [5] relates to Listeria monocytogenes BCRC 14845.
Assay [6] relates to Pseudomonas aeruginosa BCRC 10944.
The test system of assay [7] is Staphylococcus aureus BCRC 10780.
Assay [8] deals with Staphylococcus aureus BCRC 10781.
Assay [9] has as its system Staphylococcus xylosus BCRC 12930.
In assay [10] the test system is Streptococcus equinus BCRC 14729.
In assay [11] the test system is Vibrio alginolyticus BCRC 12829.
For assay [12], the system named is Vibrio anguillarum serotype O1.
In assay [13] the test system is Vibrio parahaemolyticus BCRC 10806.
Assay [14] concerns Yersinia enterocolitica BCRC 13999.
Assay [15] has as its system Candida albicans ATCC 1023.
Assay [16] has as its system Enterococcus faecalis ATCC 29212.
Assay [17] deals with Enterococcus faecalis NCTC 12697.
The test system of assay [18] is Escherichia coli ATCC 25922.
In assay [19] the test system is Escherichia coli NCTC 10418.
For assay [20], the system named is Pseudomonas aeruginosa ATCC 27853.
The subject of assay [21] is Staphylococcus aureus ATCC 25923.
Assay [22] relates to Staphylococcus aureus NCTC 10788.

Turning to `CC[C@H](C)[C@H](NC(=O)[C@H](CCCCN)NC(=O)[C@@H](NC(=O)[C@@H](NC(=O)[C@@H](NC(=O)[C@H](CCCCN)NC(=O)[C@@H](NC(=O)[C@@H](NC(=O)[C@H](CCCCN)NC(=O)[C@H](CCCCN)NC(=O)[C@H](C)NC(=O)[C@H](Cc1ccc(O)cc1)NC(=O)[C@@H](NC(=O)[C@H](C)NC(=O)CN)[C@@H](C)O)[C@@H](C)CC)[C@@H](C)CC)[C@@H](C)O)[C@@H](C)CC)[C@@H](C)O)C(=O)N[C@@H](C)C(=O)N[C@H](C(=O)N[C@H](C(=O)N[C@@H](C)C(=O)N[C@@H](Cc1c[nH]c2ccccc12)C(=O)O)[C@@H](C)O)[C@@H](C)O` [GATYAKKIIKTITKIATTAW], the MIC (in general, the least concentration at which growth counts as inhibited) in assay [1] is 14.7 µM (≈ 32 µg/mL); in [2] it was 7.34 µM (≈ 16 µg/mL); in assay [3] it was 29.4 µM (≈ 64 µg/mL); in assay [4] it was 29.4 µM (≈ 64 µg/mL); with Lactococcus garvieae, no less than 58.7 µM; in [5] it was no less than 58.7 µM. In addition, the MIC in [6] was 29.4 µM (≈ 64 µg/mL); in assay [7], no less than 58.7 µM; in assay [8], no less than 58.7 µM; in assay [9] it was 29.4 µM (≈ 64 µg/mL); in assay [10], no less than 58.7 µM; against Streptococcus iniae it was no less than 58.7 µM. Also, the MIC in assay [11] is no less than 58.7 µM; against Vibrio alginolyticus, 29.4 µM (≈ 64 µg/mL); in [12], 29.4 µM (≈ 64 µg/mL); in the assay with Vibrio harveyi, 29.4 µM (≈ 64 µg/mL); in assay [13], no less than 58.7 µM; in the assay on Vibrio parahaemolyticus it was 29.4 µM (≈ 64 µg/mL). In [14], this compound yielded an MIC of no less than 58.7 µM.

Consider `CSCC[C@H](NC(=O)[C@H](CC(=O)O)NC(=O)[C@@H](NC(=O)[C@@H](NC(=O)[C@H](C)NC(=O)[C@H](CC(N)=O)NC(=O)[C@H](CC(C)C)NC(=O)[C@H](C)NC(=O)[C@H](C)NC(=O)[C@H](CCCCN)NC(=O)CNC(=O)[C@H](C)NC(=O)[C@H](C)NC(=O)[C@H](CCCCN)NC(=O)CNC(=O)[C@@H](NC(=O)[C@H](CC(N)=O)NC(=O)[C@H](CCCCN)NC(=O)[C@H](CC(C)C)NC(=O)[C@H](CC(C)C)NC(=O)[C@@H](NC(=O)[C@H](CCCCN)NC(=O)[C@H](Cc1c[nH]c2ccccc12)NC(=O)[C@H](CC(C)C)NC(=O)[C@H](C)N)[C@@H](C)O)C(C)C)C(C)C)[C@@H](C)O)C(=O)N[C@H](C(=O)N[C@@H](CC(N)=O)C(=O)N[C@@H](CCC(N)=O)C(=O)O)C(C)C` [ALWKTLLKNVGKAAGKAALNAVTDMVNQ], for which the MIC in assay [15] worked out at 10.9 µM (≈ 31.9 µg/mL); in the assay with Candida albicans, 21.8 µM (≈ 63.8 µg/mL); against Candida tropicalis it was 10.9 µM (≈ 31.9 µg/mL); in assay [16], 10 µM (≈ 29.3 µg/mL); in [17], 10 µM (≈ 29.3 µg/mL); in assay [18] it was 2.5 µM (≈ 7.32 µg/mL). The minimum inhibitory concentration (MIC) in [19] came to 2.5 µM (≈ 7.32 µg/mL); in [20], 40 µM (≈ 117 µg/mL); in [21] it was 1.3 µM (≈ 3.8 µg/mL); in assay [22], 1.3 µM (≈ 3.8 µg/mL).

Consider `CC[C@H](C)[C@H](NC(=O)[C@H](Cc1ccc(O)cc1)NC(=O)[C@H](CCCCN)NC(=O)[C@H](Cc1ccccc1)NC(=O)[C@H](Cc1ccccc1)NC(=O)[C@H](CCCCN)NC(=O)[C@H](CC(N)=O)NC(=O)[C@@H](NC(=O)[C@H](Cc1ccc(O)cc1)NC(=O)[C@H](CCCCN)NC(=O)[C@@H](NC(=O)[C@@H](NC(=O)[C@H](CC(N)=O)NC(=O)[C@H](CC(N)=O)NC(=O)[C@@H](NC(=O)[C@H](Cc1ccc(O)cc1)NC(=O)[C@H](CCCCN)NC(=O)[C@H](Cc1ccc(O)cc1)NC(=O)CN)[C@@H](C)CC)[C@@H](C)CC)[C@@H](C)CC)[C@@H](C)CC)C(=O)N[C@@H](Cc1c[nH]c2ccccc12)C(=O)O` [GYKYINNIIKYINKFFKYIW], for which the MIC is 6.09 µM (≈ 16 µg/mL) in assay [1]; 6.09 µM (≈ 16 µg/mL) in [2]; 6.09 µM (≈ 16 µg/mL) in assay [3]; 6.09 µM (≈ 16 µg/mL) in [4]; no less than 48.7 µM with Lactococcus garvieae; 12.2 µM (≈ 32 µg/mL) in assay [5]. Also, the MIC in [6] was 12.2 µM (≈ 32 µg/mL); in assay [7] it was 3.04 µM (≈ 8 µg/mL); in assay [8], 3.04 µM (≈ 8 µg/mL); in assay [9] it was 3.04 µM (≈ 8 µg/mL); in [10], no less than 48.7 µM; against Streptococcus iniae it was 12.2 µM (≈ 32 µg/mL). The MIC in assay [11] turned out to be 12.2 µM (≈ 32 µg/mL); against Vibrio alginolyticus, 3.04 µM (≈ 8 µg/mL); in assay [12], 3.04 µM (≈ 8 µg/mL); against Vibrio harveyi, 3.04 µM (≈ 8 µg/mL); in [13], 12.2 µM (≈ 32 µg/mL); against Vibrio parahaemolyticus it was 3.04 µM (≈ 8 µg/mL). Further, the MIC in assay [14] was no less than 48.7 µM.

Turning to `CC[C@H](C)[C@H](NC(=O)[C@H](C)NC(=O)[C@@H](NC(=O)[C@H](Cc1ccc(O)cc1)NC(=O)[C@@H](NC(=O)[C@H](CCCCN)NC(=O)[C@H](CCCCN)NC(=O)[C@H](C)NC(=O)[C@H](Cc1ccccc1)NC(=O)[C@H](CC(N)=O)NC(=O)[C@H](CC(C)C)NC(=O)[C@@H](NC(=O)[C@H](CCCCN)NC(=O)[C@H](CCCCN)NC(=O)[C@H](CC(C)C)NC(=O)[C@H](Cc1ccccc1)NC(=O)[C@@H](NC(=O)[C@H](CC(C)C)NC(=O)CN)[C@@H](C)O)[C@@H](C)CC)[C@@H](C)CC)[C@@H](C)O)C(=O)N[C@@H](Cc1c[nH]c2ccccc12)C(=O)O` [GLTFLKKILNFAKKIYTAIW], the minimal inhibitory concentration (MIC) in [1] was 6.75 µM (≈ 16 µg/mL); in [2], 13.5 µM (≈ 32 µg/mL); in assay [3], 6.75 µM (≈ 16 µg/mL); in assay [4], no less than 54 µM; in the assay on Lactococcus garvieae it was 13.5 µM (≈ 32 µg/mL); in assay [5], 3.38 µM (≈ 8 µg/mL). Moreover, the MIC in assay [6] was 13.5 µM (≈ 32 µg/mL); in assay [7], 6.75 µM (≈ 16 µg/mL); in [8] it was 6.75 µM (≈ 16 µg/mL); in assay [9], 6.75 µM (≈ 16 µg/mL); in [10], no less than 54 µM; against Streptococcus iniae it was 13.5 µM (≈ 32 µg/mL). For the same compound, the MIC in assay [11] was 13.5 µM (≈ 32 µg/mL); in the assay on Vibrio alginolyticus it was 3.38 µM (≈ 8 µg/mL); in assay [12], 3.38 µM (≈ 8 µg/mL); against Vibrio harveyi, 3.38 µM (≈ 8 µg/mL); in assay [13], 13.5 µM (≈ 32 µg/mL); against Vibrio parahaemolyticus, 3.38 µM (≈ 8 µg/mL). In assay [14], this compound had a minimum inhibitory concentration (MIC) of 27 µM (≈ 64 µg/mL).
